Patent US9242933B2 (AbbVie Deutschland GmbH & Co. KG, priority 2007, dated 2016)

target: T1, human mGlu2 receptor (Homo sapiens, UniProt Q14416); experiment: FLIPR intracellular Ca2+ assay, potentiation of glutamate response in HEK293 clone expressing mGlu2 receptor, rGLAST and Galpha16; assay type: cell-based; conditions: 1 μM glutamate added ten minutes after test compound, HEK293 cells with human mGlu2, rGLAST, Galpha16, read-out: EC50 values of potentiation effect to glutamate
T1 construct: expressed in transfected cells; host or cells: HEK293
T1 sequence (Q14416 19-872): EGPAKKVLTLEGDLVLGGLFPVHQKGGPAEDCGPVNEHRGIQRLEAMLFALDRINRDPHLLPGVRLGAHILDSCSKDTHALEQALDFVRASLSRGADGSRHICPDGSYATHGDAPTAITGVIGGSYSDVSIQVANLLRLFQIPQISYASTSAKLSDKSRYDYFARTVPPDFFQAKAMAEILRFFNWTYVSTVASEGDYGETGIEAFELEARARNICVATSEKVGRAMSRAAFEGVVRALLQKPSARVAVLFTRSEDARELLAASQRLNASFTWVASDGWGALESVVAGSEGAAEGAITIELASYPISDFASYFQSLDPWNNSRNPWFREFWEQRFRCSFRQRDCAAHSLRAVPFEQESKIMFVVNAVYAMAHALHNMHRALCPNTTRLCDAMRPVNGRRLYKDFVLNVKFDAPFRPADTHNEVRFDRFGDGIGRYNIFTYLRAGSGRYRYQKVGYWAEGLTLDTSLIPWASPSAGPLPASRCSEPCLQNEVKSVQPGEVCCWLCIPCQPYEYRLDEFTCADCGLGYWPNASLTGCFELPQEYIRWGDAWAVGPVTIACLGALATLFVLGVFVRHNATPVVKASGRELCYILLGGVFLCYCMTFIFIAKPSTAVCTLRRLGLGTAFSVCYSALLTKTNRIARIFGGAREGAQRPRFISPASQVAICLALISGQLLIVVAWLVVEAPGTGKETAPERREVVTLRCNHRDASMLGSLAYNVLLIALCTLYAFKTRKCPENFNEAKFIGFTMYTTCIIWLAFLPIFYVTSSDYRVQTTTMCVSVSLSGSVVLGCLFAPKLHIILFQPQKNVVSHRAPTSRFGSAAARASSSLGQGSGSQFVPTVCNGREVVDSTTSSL
How it was run: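 HEK293 cells stably expressing human mGlu2, rat GLAST and Gα16 were loaded with 2 µM Fluo-4 AM and intracellular Ca2+ read by FLIPR. Compound added alone (agonism), then with submaximal glutamate (e.g. 1 µM; potentiation). Background-subtracted peaks normalized to 100 µM glutamate response; EC50 from four-parameter fit.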

Question: Which EC50 does the source give for `CCC(CC)Oc1cccc(N(Cc2c[nH]nc2-c2ccc(C(F)(F)F)cc2)S(=O)(=O)CC(F)(F)F)c1` [Example 454, 2,2,2-Trifluoro-ethanesulfonic acid [3-(1-ethyl-propoxy)-phenyl]-[3-(4-trifluoromethyl-phenyl)-1H-pyrazol-4-ylmethyl]-amide] here?
Answer: 1000 to 10000 nM

Question: With `CCCC(C)Oc1cccc(N(Cc2c[nH]nc2-c2ccc(C(F)(F)F)cc2)S(=O)(=O)CC(F)(F)F)c1` (stereo not drawn) [Example 455, 2,2,2-Trifluoro-ethanesulfonic acid [3-(1-methyl-butoxy)-phenyl]-[3-(4-trifluoromethyl-phenyl)-1H-pyrazol-4-ylmethyl]-amide] as the compound, how does the EC50 read?
Answer: 1000 to 10000 nM

Question: With `CCC(C)Oc1cccc(N(Cc2c[nH]nc2-c2ccc(C(F)(F)F)cc2)S(=O)(=O)CC(F)(F)F)c1` (stereo not drawn) [Example 456, 2,2,2-Trifluoro-ethanesulfonic acid (3-sec-butoxy-phenyl)-[3-(4-trifluoromethyl-phenyl)-1H-pyrazol-4-ylmethyl]-amide] as the compound, how does the EC50 read?
Answer: 1000 to 10000 nM

Question: For `CCC(C)COc1cccc(N(Cc2c[nH]nc2-c2ccc(C(F)(F)F)cc2)S(=O)(=O)CC(F)(F)F)c1` (stereo not drawn) [Example 457, 2,2,2-Trifluoro-ethanesulfonic acid [3-(2-methyl-butoxy)-phenyl]-[3-(4-trifluoromethyl-phenyl)-1H-pyrazol-4-ylmethyl]-amide], which EC50 is on record?
Answer: 1000 to 10000 nM

Question: `CC(C)(C)c1n[nH]cc1CN(c1cccc(OC2CCCC2)c1)S(=O)(=O)CC(F)(F)F` [Example 458, 2,2,2-Trifluoro-ethanesulfonic acid (3-tert-butyl-1H-pyrazol-4-ylmethyl)-(3-cyclopentyloxy-phenyl)-amide] was tested. Which EC50 did it give?
Answer: 1000 to 10000 nM

Question: `CCCC(=O)c1ccc(NCc2c[nH]nc2C)cc1` [Example 475, 1-{4-[(3-Methyl-1H-pyrazol-4-ylmethyl)-amino]-phenyl}-butan-1-one] was tested. Which EC50 did it give?
Answer: 1000 to 10000 nM

Question: Which EC50 does the source give for `CCCC(=O)c1ccc(NCc2c[nH]nc2CCC)cc1` [Example 476, 1-{4-[(3-Propyl-1H-pyrazol-4-ylmethyl)-amino]-phenyl}-butan-1-one] here?
Answer: 1000 to 10000 nM

Question: Which EC50 does the source give for `CCCC(=O)c1ccc(NCc2c[nH]nc2C(C)C)cc1` [Example 477, 1-{4-[(3-Isopropyl-1H-pyrazol-4-ylmethyl)-amino]-phenyl}-butan-1-one] here?
Answer: 1000 to 10000 nM

Question: Which EC50 does the source give for `CCCC(=O)c1ccc(NCc2c[nH]nc2CC)cc1` [Example 478, 1-{4-[(3-Ethyl-1H-pyrazol-4-ylmethyl)-amino]-phenyl}-butan-1-one] here?
Answer: 1000 to 10000 nM

Question: For `CC(=O)c1ccc(OCc2c[nH]nc2-c2ccc(C(F)(F)F)cc2)cc1` [Example 483, 1-{4-[3-(4-Trifluoromethyl-phenyl)-1H-pyrazol-4-ylmethoxy]-phenyl}-ethanone], which EC50 is on record?
Answer: 1000 to 10000 nM

Question: Which EC50 does the source give for `CC(=O)c1ccc(OCc2c[nH]nc2-c2ccc(C(F)(F)F)cc2)cc1F` [Example 485, 1-{2-Fluoro-4-[3-(4-trifluoromethyl-phenyl)-1H-pyrazol-4-ylmethoxy]-phenyl}-ethanone] here?
Answer: 1000 to 10000 nM

Question: With `CC(=O)c1ccc(OCc2c[nH]nc2-c2ccc(C(F)(F)F)cc2)cc1C` [Example 487, 1-{2-Methyl-4-[3-(4-trifluoromethyl-phenyl)-1H-pyrazol-4-ylmethoxy]-phenyl}-ethanone] as the compound, how does the EC50 read?
Answer: 1000 to 10000 nM

Question: How did the EC50 turn out when `CC(=O)c1ccc(OCc2c[nH]nc2-c2ccc(C(F)(F)F)cc2)c(C)c1` [Example 488, 1-{3-Methyl-4-[3-(4-trifluoromethyl-phenyl)-1H-pyrazol-4-ylmethoxy]-phenyl}-ethanone] was run?
Answer: 1000 to 10000 nM

Question: Which EC50 does the source give for `CCC(=O)c1ccc(OCc2c[nH]nc2-c2ccc(C(F)(F)F)cc2)cc1` [Example 489, 1-{4-[3-(4-Trifluoromethyl-phenyl)-1H-pyrazol-4-ylmethoxy]-phenyl}-propan-1-one] here?
Answer: < 1000 nM

Question: How did the EC50 turn out when `CCCCC(=O)c1ccc(OCc2c[nH]nc2-c2ccc(C(F)(F)F)cc2)cc1` [Example 490, 1-{4-[3-(4-Trifluoromethyl-phenyl)-1H-pyrazol-4-ylmethoxy]-phenyl}-pentan-1-one] was run?
Answer: < 1000 nM

Question: For `CCCCCC(=O)c1ccc(OCc2c[nH]nc2-c2ccc(C(F)(F)F)cc2)cc1` [Example 491, 1-{4-[3-(4-Trifluoromethyl-phenyl)-1H-pyrazol-4-ylmethoxy]-phenyl}-hexan-1-one], which EC50 is on record?
Answer: < 1000 nM

Question: With `CCCC(=O)c1ccc(SCc2c[nH]nc2-c2ccc(C(F)(F)F)cc2)cc1` [Example 492, 1-{4-[3-(4-Trifluoromethyl-phenyl)-1H-pyrazol-4-ylmethylsulfanyl]-phenyl}-butan-1-one] as the compound, how does the EC50 read?
Answer: 1000 to 10000 nM

Question: For `CCCC(=O)c1ccc(OCc2c[nH]nc2-c2ccc(C(F)(F)F)cc2)cc1` [Example 494, 1-{4-[3-(4-Trifluoromethyl-phenyl)-1H-pyrazol-4-ylmethoxy]-phenyl}-butan-1-one], which EC50 is on record?
Answer: < 1000 nM

Question: How did the EC50 turn out when `CCCC(=O)c1ccc(OCc2c[nH]nc2-c2ccc(F)cc2)cc1` [Example 495, 1-{4-[3-(4-Fluorophenyl)-1H-pyrazol-4-ylmethoxy]-phenyl}-butan-1-one] was run?
Answer: < 1000 nM

Question: `CCCC(=O)c1ccc(OCc2c[nH]nc2-c2ccc(Cl)cc2)cc1` [Example 496, 1-{4-[3-(4-Chloro-phenyl)-1H-pyrazol-4-ylmethoxy]-phenyl}-butan-1-one] was tested. Which EC50 did it give?
Answer: < 1000 nM

Question: With `CCCC(=O)c1ccc(OCc2c[nH]nc2-c2cccc(F)c2)cc1` [Example 497, 1-{4-[3-(3-Fluorophenyl)-1H-pyrazol-4-ylmethoxy]-phenyl}-butan-1-one] as the compound, how does the EC50 read?
Answer: < 1000 nM

Question: `CCCC(=O)c1ccc(OCc2c[nH]nc2-c2cccc(C(F)(F)F)c2)cc1` [Example 498, 1-{4-[3-(3-Trifluoromethyl-phenyl)-1H-pyrazol-4-ylmethoxy]-phenyl}-butan-1-one] was tested. Which EC50 did it give?
Answer: < 1000 nM

Question: For `CCCC(=O)c1ccc(OCc2c[nH]nc2-c2ccccc2)cc1` [Example 499, 1-[4-(3-Phenyl-1H-pyrazol-4-ylmethoxy)-phenyl]-butan-1-one], which EC50 is on record?
Answer: < 1000 nM

Question: For `CC(=O)c1ccc(NCc2c[nH]nc2-c2ccc(C(F)(F)F)cc2)cc1` [Example 501, 1-(4-{[3-(4-Trifluoromethyl-phenyl)-1H-pyrazol-4-ylmethyl]-amino}-phenyl)-ethanone], which EC50 is on record?
Answer: 1000 to 10000 nM

Question: For `CCCC(=O)c1cccc(NCc2c[nH]nc2-c2ccc(C(F)(F)F)cc2)c1` [Example 503, 1-(3-{[3-(4-Trifluoromethyl-phenyl)-1H-pyrazol-4-ylmethyl]-amino}-phenyl)-butan-1-one], which EC50 is on record?
Answer: 1000 to 10000 nM

Question: `O=C(c1ccccc1)c1ccc(NCc2c[nH]nc2-c2ccc(C(F)(F)F)cc2)cc1` [Example 504, Phenyl-(4-{[3-(4-trifluoromethyl-phenyl)-1H-pyrazol-4-ylmethyl]-amino}-phenyl)-methanone] was tested. Which EC50 did it give?
Answer: 1000 to 10000 nM

Question: Which EC50 does the source give for `O=C(c1ccc(NCc2c[nH]nc2-c2ccc(C(F)(F)F)cc2)cc1)C(F)(F)F` [Example 506, 2,2,2-Trifluoro-1-(4-{[3-(4-trifluoromethyl-phenyl)-1H-pyrazol-4-ylmethyl]-amino}-phenyl)-ethanone] here?
Answer: 1000 to 10000 nM

Question: `CC(=O)c1ccc2c(c1)CCN2Cc1c[nH]nc1-c1ccc(C(F)(F)F)cc1` [Example 507, 1-{1-[3-(4-Trifluoromethyl-phenyl)-1H-pyrazol-4-ylmethyl]2,3-dihydro1H-indol-5-yl}-ethanone] was tested. Which EC50 did it give?
Answer: 1000 to 10000 nM

Question: For `CCCC(=O)c1ccc(NCc2c[nH]nc2-c2ccc(F)cc2)cc1` [Example 508, 1-(4-{[3-(4-Fluorophenyl)-1H-pyrazol-4-ylmethyl]-amino}-phenyl)-butan-1-one], which EC50 is on record?
Answer: < 1000 nM

Question: Which EC50 does the source give for `CCCC(=O)c1ccc(NCc2c[nH]nc2-c2cccc(Cl)c2)cc1` [Example 509, 1-(4-{[3-(3-Chloro-phenyl)-1H-pyrazol-4-ylmethyl]-amino}-phenyl)-butan-1-one] here?
Answer: < 1000 nM

Question: With `CCCC(=O)c1ccc(NCc2c[nH]nc2-c2ccccc2Cl)cc1` [Example 510, 1-(4-{[3-(2-Chloro-phenyl)-1H-pyrazol-4-ylmethyl]-amino}-phenyl)-butan-1-one] as the compound, how does the EC50 read?
Answer: < 1000 nM

Question: For `CCCC(=O)c1ccc(NCc2c[nH]nc2-c2cccc(F)c2)cc1` [Example 511, 1-(4-{[3-(3-Fluorophenyl)-1H-pyrazol-4-ylmethyl]-amino}-phenyl)-butan-1-one], which EC50 is on record?
Answer: < 1000 nM

Question: `CCCC(=O)c1ccc(NCc2n[nH]cc2-c2ccc(OC)cc2)cc1` [Example 513, 1-(4-{[4-(4-Methoxy-phenyl)-1H-pyrazol-3-ylmethyl]-amino}-phenyl)-butan-1-one] was tested. Which EC50 did it give?
Answer: < 1000 nM

Question: `CCCC(=O)c1cccc(NCc2n[nH]cc2-c2ccc(OC)cc2)c1` [Example 514, 1-(3-{[4-(4-Methoxy-phenyl)-1H-pyrazol-3-ylmethyl]-amino}-phenyl)-butan-1-one] was tested. Which EC50 did it give?
Answer: 1000 to 10000 nM

Question: Which EC50 does the source give for `CCCC(=O)c1cccc(NCc2n[nH]cc2-c2ccc(CC)cc2)c1` [Example 515, 1-(3-{[4-(4-Ethyl-phenyl)-1H-pyrazol-3-ylmethyl]-amino}-phenyl)-butan-1-one] here?
Answer: 1000 to 10000 nM

Question: For `CCCC(=O)c1ccc(NCc2n[nH]cc2-c2ccc(CC)cc2)cc1` [Example 516, 1-(4-{[4-(4-Ethyl-phenyl)-1H-pyrazol-3-ylmethyl]-amino}-phenyl)-butan-1-one], which EC50 is on record?
Answer: < 1000 nM

Question: For `CCCC(=O)c1ccc(NCc2n[nH]cc2-c2ccc(C(F)(F)F)cc2)cc1` [Example 517, 1-(4-{[4-(4-Trifluoromethyl-phenyl)-1H-pyrazol-3-ylmethyl]-amino}-phenyl)-butan-1-one], which EC50 is on record?
Answer: < 1000 nM

Question: `CCCC(=O)c1ccc(NCc2n[nH]cc2-c2ccc(Cl)cc2)cc1` [Example 518, 1-(4-{[4-(4-Chloro-phenyl)-1H-pyrazol-3-ylmethyl]-amino}-phenyl)-butan-1-one] was tested. Which EC50 did it give?
Answer: 1000 to 10000 nM

Question: For `CCCC(=O)c1ccc(NCc2n[nH]nc2-c2ccccc2)cc1` [Example 519], which EC50 is on record?
Answer: 1000 to 10000 nM

Question: How did the EC50 turn out when `CCCC(=O)c1ccc(OCc2n[nH]cc2-c2ccc(OC)cc2)cc1` [Example 520, 1-{4-[4-(4-Methoxy-phenyl)-1H-pyrazol-3-ylmethoxy]-phenyl}-butan-1-one] was run?
Answer: < 1000 nM

Question: How did the EC50 turn out when `CCCC(=O)c1ccc(OCc2n[nH]cc2-c2ccc(CC)cc2)cc1` [Example 521, 1-{4-[4-(4-Ethyl-phenyl)-1H-pyrazol-3-ylmethoxy]-phenyl}-butan-1-one] was run?
Answer: < 1000 nM

Question: For `CCCC(=O)c1ccc(NCc2n[nH]cc2Br)cc1` [Example 522], which EC50 is on record?
Answer: 1000 to 10000 nM
